These results are taken from ChEMBL document CHEMBL1131735, “Structure-activity relationships of substituted 5H-thiazolo[3,2-a]pyrimidines as group 2 metabotropic glutamate receptor antagonists” (Bioorg Med Chem Lett, 1999).

Chain of Metabotropic glutamate receptor 2 (P31421 whole entry): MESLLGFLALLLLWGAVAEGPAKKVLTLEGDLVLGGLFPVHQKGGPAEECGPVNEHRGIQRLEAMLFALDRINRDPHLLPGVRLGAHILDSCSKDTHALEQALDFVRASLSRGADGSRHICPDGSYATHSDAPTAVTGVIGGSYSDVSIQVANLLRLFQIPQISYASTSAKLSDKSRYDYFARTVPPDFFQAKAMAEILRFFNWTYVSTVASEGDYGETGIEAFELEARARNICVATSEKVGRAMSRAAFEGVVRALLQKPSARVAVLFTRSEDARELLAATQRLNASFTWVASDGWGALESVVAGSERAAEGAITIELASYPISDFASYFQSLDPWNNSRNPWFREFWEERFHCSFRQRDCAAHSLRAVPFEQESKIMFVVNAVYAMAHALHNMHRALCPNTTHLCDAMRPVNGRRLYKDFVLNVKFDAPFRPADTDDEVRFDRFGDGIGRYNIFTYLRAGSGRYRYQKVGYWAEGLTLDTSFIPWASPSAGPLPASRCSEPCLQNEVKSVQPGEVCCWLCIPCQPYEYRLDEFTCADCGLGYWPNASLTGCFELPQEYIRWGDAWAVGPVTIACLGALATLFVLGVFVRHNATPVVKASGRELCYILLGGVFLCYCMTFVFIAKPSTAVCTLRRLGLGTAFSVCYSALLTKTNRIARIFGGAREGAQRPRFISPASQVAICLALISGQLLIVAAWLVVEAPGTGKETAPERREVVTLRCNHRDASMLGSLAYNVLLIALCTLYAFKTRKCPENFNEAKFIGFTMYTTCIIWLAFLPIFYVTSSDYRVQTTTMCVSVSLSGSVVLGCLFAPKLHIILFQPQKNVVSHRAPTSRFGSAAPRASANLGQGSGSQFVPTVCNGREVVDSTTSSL

The experiment has as its target Metabotropic glutamate receptor 2 (Rattus norvegicus, UniProt P31421). The experiment can be described thus: Inhibition of 1S,3R-ACPD (10 uM) -stimulated GTP gamma 35S binding on rat Metabotropic glutamate receptor 2 transfected in CHO cells. Type of experiment: cell-based.
Regarding `COc1ccccc1C1C(C(=O)OCCN(C)C)=C(C(C)C)N=C2SC(c3c(Cl)cccc3Cl)=CN21` (stereo unspecified), the Ki was found to be 4 µM.
`COc1ccccc1C1C(C(=O)OCCN(C)C)=C(C)N=C2SC(c3ccc(Cl)cc3Cl)=CN21` (stereo unspecified) came in with a Ki of 1 µM.
In the case of `COc1ccccc1C1C(C(=O)OCCN(C)C)=C(C)N=C2SC(c3ccc(Cl)cc3)=CN21` (stereo unspecified), the Ki was determined as 4 µM. Against the preceding compound, the Ki is about 4-fold higher.
`COc1ccccc1C1C(C(=O)OCCN(C)C)=C(C(=O)c2ccccc2)N=C2SC(c3c(Cl)cccc3Cl)=CN21` (stereo unspecified) yielded a Ki greater than 10 µM.
Turning to `CCOC(=O)C1=C(C)N=C2SC(c3c(Cl)cccc3Cl)=CN2C1c1ccccc1OC` (stereo unspecified), the Ki turned out to be 4 µM.
To `COc1cccc(C2C(C(=O)OCCN(C)C)=C(C)N=C3SC(c4c(Cl)cccc4Cl)=CN32)c1` (stereo unspecified) belongs 2 µM.
For the compound `CC1=C(C(=O)OCCN(C)C)C(c2ccccc2Cl)N2C=C(c3c(Cl)cccc3Cl)SC2=N1` (stereo unspecified), affinity was put at a Ki of 2 µM.
In the case of `CC1=C(C(=O)OCCN(C)C)C(c2ccccc2F)N2C=C(c3c(Cl)cccc3Cl)SC2=N1` (stereo unspecified), the affinity, expressed as Ki, was 3.2 µM. This Ki is about 1.6-fold higher than that of the compound before.
To `CCOc1ccccc1C1C(C(=O)OCCN(C)C)=C(C)N=C2SC(c3c(Cl)cccc3Cl)=CN21` (stereo unspecified) belongs 3 µM.
To `CC1=C(C(=O)OCCN(C)C)C(c2ccccc2C)N2C=C(c3c(Cl)cccc3Cl)SC2=N1` (stereo unspecified) belongs 8 µM.
To `COc1ccccc1C1C(C(=O)NCCN(C)C)=C(C)N=C2SC(c3c(Cl)cccc3Cl)=CN21` (stereo unspecified) belongs greater than 10 µM.
`CC1=C(C(=O)OCCN(C)C)C(c2ccccc2OC(C)C)N2C=C(c3c(Cl)cccc3Cl)SC2=N1` (stereo unspecified) yielded a Ki of 2 µM.
In turn, `COc1ccccc1C1C(C(=O)OCCCN(C)C)=C(C)N=C2SC(c3c(Cl)cccc3Cl)=CN21` (stereo unspecified) showed a Ki of 2.4 µM.
`COc1ccc(C2C(C(=O)OCCN(C)C)=C(C)N=C3SC(c4c(Cl)cccc4Cl)=CN32)cc1` (stereo unspecified): affinity was put at a Ki of 7 µM.
On to `COc1ccccc1C1C(C(=O)OCCN(C)C)=C(C)N=C2SC(c3c(Cl)cccc3Cl)=CN21` (stereo unspecified), for which the Ki was 1.5 µM.
For `CCC1=C(C(=O)OCCN(C)C)C(c2ccccc2OC)N2C=C(c3c(Cl)cccc3Cl)SC2=N1` (stereo unspecified), affinity was put at a Ki of 1 µM.
